Laboratory results taken from patent publication US20090286829A1, “QUINOLYNYLMETHYLIMIDIZOLES AS THERAPEUTIC AGENTS” (ALLERGAN, INC., priority 2008, published 2009).

Assays:
Format in all cases: cell-based
Alpha 2A = biological target: T1, Alpha 2A (Homo sapiens, UniProt P08913); assay: RSAT assay, alpha 2A receptor; settings: ratio of maximal effect to that of standard agonist brimonidine
T1 construct: expressed in transfected cells; host or cells: NIH-3T3
T1 sequence (P08913 1-465): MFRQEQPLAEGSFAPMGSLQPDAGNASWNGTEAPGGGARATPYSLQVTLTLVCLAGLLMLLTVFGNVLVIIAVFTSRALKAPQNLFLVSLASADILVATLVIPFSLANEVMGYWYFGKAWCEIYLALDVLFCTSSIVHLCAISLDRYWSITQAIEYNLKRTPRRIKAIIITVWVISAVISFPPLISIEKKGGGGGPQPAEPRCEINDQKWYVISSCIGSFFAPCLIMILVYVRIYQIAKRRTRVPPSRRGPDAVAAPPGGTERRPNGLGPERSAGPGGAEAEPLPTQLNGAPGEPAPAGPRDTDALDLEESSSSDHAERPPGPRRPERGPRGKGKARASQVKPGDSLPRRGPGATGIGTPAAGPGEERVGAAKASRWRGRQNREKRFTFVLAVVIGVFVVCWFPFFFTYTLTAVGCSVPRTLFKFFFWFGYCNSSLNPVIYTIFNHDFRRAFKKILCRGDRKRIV
Description: (§1) The RSAT assay measures a receptor-mediated loss of contact inhibition that results in selective proliferation of receptor-containing cells in a mixed population of confluent cells. The increase in cell number is assessed with an appropriate transfected marker gene such as -galactosidase, the activity of which can be easily measured in a 96-well format. Receptors that activate the G protein, Gq, elicit this response. Alpha2 receptors, which normally couple to Gi, activate the RSAT response when coexpressed with a hybrid Gq protein that has a Gi receptor recognition domain, called Gq/i5.
(§2) NIH-3T3 cells are plated at a density of 2×10^6 cells in 15 cm dishes and maintained in Dulbecco's modified Eagle's medium supplemented with 10% calf serum. […] After washing with phosphate-buffered saline, β-galactosidase enzyme activity is determined by adding 200 μl of the chromogenic substrate (consisting of 3.5 mM o-nitrophenyl-β-D-galactopyranoside and 0.5% nonidet P-40 in phosphate buffered saline), incubating overnight at 30° C. and measuring optical density at 420 nm. The absorbance is a measure of enzyme activity, which depends on cell number and reflects a receptor-mediated cell proliferation. The efficacy or intrinsic activity is calculated as a ratio of the maximal effect of the drug to the maximal effect of a standard full agonist for each receptor subtype. […]

Alpha 1A = biological target: T2, Alpha 1A (Homo sapiens, UniProt P35348); assay: RSAT assay, alpha 1A receptor
T2 construct: expressed in transfected cells; host or cells: NIH-3T3
T2 sequence (P35348 1-466): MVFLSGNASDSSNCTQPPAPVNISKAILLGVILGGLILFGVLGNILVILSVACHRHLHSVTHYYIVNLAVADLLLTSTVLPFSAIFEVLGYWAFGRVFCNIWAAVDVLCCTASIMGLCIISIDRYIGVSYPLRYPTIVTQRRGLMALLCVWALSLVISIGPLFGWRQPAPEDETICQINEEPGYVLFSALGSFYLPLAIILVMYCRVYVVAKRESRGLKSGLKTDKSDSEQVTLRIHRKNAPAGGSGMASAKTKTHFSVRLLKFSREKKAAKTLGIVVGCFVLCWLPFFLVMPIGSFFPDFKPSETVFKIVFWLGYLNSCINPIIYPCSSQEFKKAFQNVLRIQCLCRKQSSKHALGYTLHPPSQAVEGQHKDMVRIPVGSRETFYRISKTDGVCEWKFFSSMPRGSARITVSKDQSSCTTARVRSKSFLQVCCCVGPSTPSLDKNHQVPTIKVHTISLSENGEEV
Description: as §1, §2

Alpha 2B = biological target: T3, Alpha 2B (Homo sapiens, UniProt P18089); assay: RSAT assay, alpha 2B receptor; settings: for Alpha 2B (IA) intrinsic activity: RSAT, ratio of maximal effect to that of standard agonist brimonidine
T3 construct: expressed in transfected cells; host or cells: NIH-3T3
T3 sequence (P18089 1-450): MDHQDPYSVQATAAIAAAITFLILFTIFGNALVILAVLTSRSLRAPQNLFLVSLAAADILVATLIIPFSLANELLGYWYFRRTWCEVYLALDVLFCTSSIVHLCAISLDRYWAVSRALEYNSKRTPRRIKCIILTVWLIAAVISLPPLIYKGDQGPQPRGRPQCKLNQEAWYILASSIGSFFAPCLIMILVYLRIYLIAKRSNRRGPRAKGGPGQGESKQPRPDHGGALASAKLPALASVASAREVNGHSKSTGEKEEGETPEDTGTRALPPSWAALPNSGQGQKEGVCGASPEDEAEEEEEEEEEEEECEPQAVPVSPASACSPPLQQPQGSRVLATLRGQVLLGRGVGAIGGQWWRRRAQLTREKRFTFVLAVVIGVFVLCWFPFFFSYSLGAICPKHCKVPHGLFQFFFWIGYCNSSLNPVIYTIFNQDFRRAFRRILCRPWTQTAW
Description: as §1
NIH-3T3 cells are plated at a density of 2×10^6 cells in 15 cm dishes and maintained in Dulbecco's modified Eagle's medium supplemented with 10% calf serum. One day later, cells are cotransfected by calcium phosphate precipitation with mammalian expression plasmids encoding p-SV-1-galactosidase (5-10 μg), receptor (1-2 μg) and G protein (1-2 μg). 40 μg salmon sperm DNA may also be included in the transfection mixture. Fresh media is added on the following day and 1-2 days later, cells are harvested and frozen in 50 assay aliquots. Cells are thawed and 100 μl added to 100 μl aliquots of various concentrations of drugs in triplicate in 96-well dishes. Incubations continue 72-96 hr at 37° C. After washing with phosphate-buffered saline, β-galactosidase enzyme activity is determined by adding 200 μl of the chromogenic substrate (consisting of 3.5 mM o-nitrophenyl-β-D-galactopyranoside and 0.5% nonidet P-40 in phosphate buffered saline), incubating overnight at 30° C. and measuring optical density at 420 nm. The absorbance is a measure of enzyme activity, which depends on cell number and reflects a receptor-mediated cell proliferation. The efficacy or intrinsic activity is calculated as a ratio of the maximal effect of the drug to the maximal effect of a standard full agonist for each receptor subtype. Brimonidine, also called UK14304, the chemical structure of which is shown below, is used as the standard agonist for the alpha2A, alpha2B and alpha2C receptors. The EC50 is the concentration at which the drug effect is half of its maximal effect.
EC50 values are nanomolar. NA stands for “not active” at concentrations less than 10 micromolar. IA stands for “intrinsic activity.”

Alpha 2C = biological target: T4, Alpha 2C (Homo sapiens, UniProt P18825); assay: RSAT assay, alpha 2C receptor
T4 construct: expressed in transfected cells; host or cells: NIH-3T3
T4 sequence (P18825 1-462): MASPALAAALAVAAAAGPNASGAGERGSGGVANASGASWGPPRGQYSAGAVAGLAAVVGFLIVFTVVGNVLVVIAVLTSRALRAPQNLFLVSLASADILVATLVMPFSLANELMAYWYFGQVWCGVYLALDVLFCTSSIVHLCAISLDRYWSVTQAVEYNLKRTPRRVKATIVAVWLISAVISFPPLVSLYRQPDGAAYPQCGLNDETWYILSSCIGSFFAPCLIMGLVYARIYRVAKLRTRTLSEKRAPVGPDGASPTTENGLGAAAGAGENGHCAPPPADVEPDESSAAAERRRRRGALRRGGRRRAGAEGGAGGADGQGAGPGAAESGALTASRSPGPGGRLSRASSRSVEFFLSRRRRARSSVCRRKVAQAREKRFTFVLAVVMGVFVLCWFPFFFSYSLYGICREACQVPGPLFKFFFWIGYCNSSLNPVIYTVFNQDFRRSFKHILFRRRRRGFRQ
Description: as §1, §2

| SMILES | Alpha 2A (IA) intrinsic activity (Alpha 2A) | EC50 (Alpha 1A) | Alpha 1A (IA) intrinsic activity (Alpha 1A; RSAT, ratio of maximal effect of drug to maximal effect of standard full agonist) | EC50 (Alpha 2B) | Alpha 2B (IA) intrinsic activity (Alpha 2B) | EC50 (Alpha 2C) | Alpha 2C (IA) intrinsic activity (Alpha 2C; RSAT, ratio of maximal effect to that of standard agonist brimonidine) |
| --- | --- | --- | --- | --- | --- | --- | --- |
| Cc1[nH]cnc1Cc1ccc2cccnc2c1C [8-methyl-7-((5-methyl-1H-imidazol-4-yl)methyl)quinoline] | 0.43 |  |  |  |  |  |  |
| Cc1[nH]cnc1Cc1cccc2cccnc12 [8-((5-methyl-1H-imidazol-4-yl)methyl)quinoline] |  | 1.73 µM | 0.75 | 0.117 µM | 0.70 |  |  |
| Cc1[nH]cnc1C(C)c1cccc2cccnc12 (stereo not drawn) [8-(1-(5-methyl-1H-imidazol-4-yl)ethyl)quinoline] |  |  |  | 0.03 µM | 0.70 | 3.11 µM | 0.32 |
